# According to patent US3960667A, “Antibiotic A23187 and process for preparation thereof” (priority 1975, dated 1976):
# Counter-ions that a name gives are not always drawn.
# Legend:
# [1] = tested on: Helminthosporium sativum; test: Antibiotic activity, agar dilution; type: cell-based; conditions: agar dilution (ad), read-out: Minimum inhibitory concentration
# Excerpt: (§1) The novel antibiotic of this invention has an inhibitory action against the growth of microbial organisms, both bacteria and fungi, which are pathogenic to animal and plant life and is therefore useful in suppressing the growth of such organisms. The antibiotic A23187 is useful in wash solutions for sanitation purposes, as in the cleaning of equipment, floors or furnishings of contaminated rooms or laboratories. For such purposes, the antibiotic, or a salt thereof, is conveniently formulated as a solution in one of the lower chlorinated hydrocarbons, as for example, chloroform. […] The preparation of such formulations is readily accomplished by methods known in the art. The antibiotic can be employed in a wide range of concentrations. Because of its relatively high activity, concentratons of 100 to 500 parts per million are generally adequate for most purposes. The letters bd refer to broth dilution and the letters ad refer to agar dilution.
# [2] = tested on: Cladosporium resinae; test: Antibiotic activity, agar dilution; type: cell-based; conditions: Amorphotheca resinae, agar dilution (ad), read-out: Minimum inhibitory concentration
# Excerpt: as §1
# [3] = tested on: Trichophyton mentagrophytes; test: Antibiotic activity, agar dilution; type: cell-based; conditions: agar dilution (ad), read-out: Minimum inhibitory concentration
# Excerpt: as §1
# [4] = tested on: Saccharomyces pastorianus; test: Antibiotic activity, agar dilution; type: cell-based; conditions: agar dilution (ad), read-out: Minimum inhibitory concentration
# Excerpt: as §1
# [5] = tested on: Mycobacterium avium; test: Antibiotic activity, agar dilution; type: cell-based; conditions: agar dilution (ad), read-out: Minimum inhibitory concentration
# Excerpt: as §1
# [6] = tested on: Lactobacillus casei; test: Antibiotic activity, agar dilution; type: cell-based; conditions: Lacticaseibacillus casei, agar dilution (ad), read-out: Minimum inhibitory concentration
# Excerpt: as §1
# [7] = tested on: Botrytis cinerea; test: Antibiotic activity, agar dilution; type: cell-based; conditions: agar dilution (ad), read-out: Minimum inhibitory concentration
# Excerpt: as §1
# [8] = tested on: Bacillus subtilis; test: Antibiotic activity, agar dilution; type: cell-based; conditions: agar dilution (ad), read-out: Minimum inhibitory concentration
# Excerpt: as §1
# [9] = tested on: Ceratostomella ulmi; test: Antibiotic activity, agar dilution; type: cell-based; conditions: Ophiostoma ulmi, agar dilution (ad), read-out: Minimum inhibitory concentration
# Excerpt: as §1
# [10] = tested on: Penicillium expansum; test: Antibiotic activity, agar dilution; type: cell-based; conditions: agar dilution (ad), read-out: Minimum inhibitory concentration
# Excerpt: as §1
# [11] = tested on: Glomerella cingulata; test: Antibiotic activity, agar dilution; type: cell-based; conditions: Colletotrichum gloeosporioides, agar dilution (ad), read-out: Minimum inhibitory concentration
# Excerpt: as §1
# [12] = tested on: Leuconostoc citrovorum; test: Antibiotic activity, agar dilution; type: cell-based; conditions: agar dilution (ad), read-out: Minimum inhibitory concentration
# Excerpt: as §1
# [13] = tested on: Pullularia sp.; test: Antibiotic activity, agar dilution; type: cell-based; conditions: agar dilution (ad), read-out: Minimum inhibitory concentration
# Excerpt: as §1
# [14] = tested on: Colletotrichum pisi; test: Antibiotic activity, agar dilution; type: cell-based; conditions: agar dilution (ad), read-out: Minimum inhibitory concentration
# Excerpt: as §1
# [15] = tested on: Candida albicans; test: Antibiotic activity, agar dilution; type: cell-based; conditions: agar dilution (ad), read-out: Minimum inhibitory concentration
# Excerpt: as §1
# [16] = Acute toxicity in mice; conditions: mouse, in vivo, ip, administered intraperitoneally
# Protocol: The acute toxicity of antibiotic A23187 in mice, expressed as LD50, is about 10 mg/kg of body weight when the antibiotic is administered intraperitoneally.
# [17] = Solubility; type: physicochemical
# [18] = Affinity for divalent cations (complex formation); type: binding
# Excerpt: Another characteristic feature of A23187 is its ability to form complexes with certain divalent cations. In experiments to determine the affinity of A23187 for such cations, the following order of reactivity is seen: […]
# [19] = tested on: Staphylococcus aureus 3055; test: Antibiotic activity, broth dilution; type: cell-based; conditions: broth dilution (bd), read-out: Minimum inhibitory concentration
# Excerpt: as §1
# [20] = tested on: Mycoplasma gallisepticum; test: Antibiotic activity, broth dilution; type: cell-based; conditions: Mycoplasmoides gallisepticum, broth dilution (bd), read-out: Minimum inhibitory concentration
# Excerpt: as §1
# [21] = tested on: Pasteurella hemolytica; test: Antibiotic activity, broth dilution; type: cell-based; conditions: broth dilution (bd), read-out: Minimum inhibitory concentration
# Excerpt: as §1
# [22] = tested on: Streptococcus faecalis 80; test: Antibiotic activity, broth dilution; type: cell-based; conditions: Enterococcus faecalis, broth dilution (bd), read-out: Minimum inhibitory concentration
# Excerpt: as §1
# [23] = tested on: Pasteurella multocida; test: Antibiotic activity, broth dilution; type: cell-based; conditions: broth dilution (bd), read-out: Minimum inhibitory concentration
# Excerpt: as §1
# [24] = tested on: Erysipelas insidiosa; test: Antibiotic activity, broth dilution; type: cell-based; conditions: broth dilution (bd), read-out: Minimum inhibitory concentration
# Excerpt: as §1
# [25] = tested on: Staphylococcus aureus 1130; test: Antibiotic activity, broth dilution; type: cell-based; conditions: broth dilution (bd), read-out: Minimum inhibitory concentration
# Excerpt: as §1
# [26] = Electrometric titration; type: physicochemical; conditions: 90% dimethylsulfoxide; electrometric titration in 90 percent dimethylsulfoxide
# Protocol: The molecular weight, calculated from titration data, is approximately 550. A23187 is optically active, having a specific rotation, [α]D^25, of […], at a concentration of 1% in chloroform.
compound,measurement,setting,value
CNc1ccc2oc(C[C@H]3O[C@@]4(CC[C@H]3C)O[C@H]([C@H](C)C(=O)c3ccc[nH]3)[C@H](C)C[C@H]4C)nc2c1C(=O)O [Antibiotic A23187],MIC,[1],25 µg/mL
same,MIC,[2],6.25 µg/mL
same,MIC,[3],0.78 µg/mL
same,MIC,[4],1.56 µg/mL
same,MIC,[5],0.4 µg/mL
same,MIC,[6],0.78 µg/mL
same,MIC,[7],1.56 µg/mL
same,MIC,[8],0.2 µg/mL
same,MIC,[9],6.25 µg/mL
same,MIC,[10],6.25 µg/mL
same,MIC,[11],100 µg/mL
same,MIC,[12],0.2 µg/mL
same,MIC,[13],1.56 µg/mL
same,MIC,[14],6.25 µg/mL
same,MIC,[15],25 µg/mL
same,LD50,[16],~10 mg/kg
same,solubility in water,[17],relatively insoluble in water
same,affinity for Be^+^+,[18],moderate affinity
same,affinity for Cd^+^+,[18],appreciable affinity
same,affinity for Co^+^+,[18],moderate affinity
same,affinity for Hg^+^+,[18],no apparent affinity
same,affinity for Ni^+^+,[18],moderate affinity
same,affinity for Zn^+^+,[18],moderate affinity
same,order of reactivity (affinity) for divalent cations,"[18]; Mn, Ca, Mg, Sr, Ba cations",Mn^+^+ >> Ca^+^+ = Mg^+^+ > Sr^+^+ > Ba^+^+
same,"ionophorous properties, specificity",[18]; divalent cations,high specificity for divalent cations
same,MIC,[19],0.78 µg/mL
same,MIC,[20],1.56 µg/mL
same,MIC,[21],12.5 µg/mL
same,MIC,[22],0.097 µg/mL
same,MIC,[23],0.39 µg/mL
same,MIC,[24],< 0.048 µg/mL
same,MIC,[25],0.048 µg/mL
CNc1ccc2oc(CC3OC4(CCC3C)OC(C(C)C(=O)c3ccc[nH]3)C(C)CC4C)nc2c1C(=O)O (stereo not drawn) [mixed calcium-magnesium salt of A23187],pKa,[26],6.9
same,solubility in the lower alkyl ketones,"[17]; acetone, methylethyl ketone, diethyl ketone and the like",very soluble
same,solubility in the lower alcohols,"[17]; methanol, ethanol, isopropanol and the like",very slightly soluble
same,solubility in esters formed with the lower alkyl carboxylic acids and lower alcohols,"[17]; methyl acetate, ethyl acetate, methyl propionate, amyl acetate, methyl butyrate and the like",very soluble
same,solubility in the lower alkyl chlorinated hydrocarbons,"[17]; methylene chloride, chloroform, dichloroethane and the like",very soluble
same,solubility in hydrocarbons,"[17]; pentane, hexane, heptane and the like",insoluble
same,solubility in water,[17],insoluble
